Tests used:
[1] = test system: AP sites in calf thymus DNA; assay: MX or ARP and Cy7MX genomic DNA competition assay; format: binding
Method: Calf thymus DNA was purchased from Sigma and was reconstituted overnight at 4° C. in either H2O or 500 mM MX (to eliminate basal AP sites) with gentle shaking (1.5 mL water or solution per 5 mg DNA). For samples reconstituted in MX solution, an ethanol precipitation was performed twice before heat and acid treatment (vide infra) then reconstituted in water. The DNA-water solution was aliquoted to 1.5 mL Eppendorf tubes (360 μL) and 10× Citrate buffer (1M NaCl, 100 μM monosodium phosphate, 100 μM monosodium citrate, pH 5.0) was added to a final concentration of 1×. For t=0 min samples, ice-cold 100% EtOH (1.0 mL) was added immediately and the Eppendorf tubes stored at −20° C. Other samples were placed in a 70° C. heating block for 15-90 minutes in 15-minute increments. Samples were removed from heat, precipitated in ice-cold 100% EtOH (1.0 mL), and then chilled at −20° C. for at least 20 minutes. Samples were centrifuged at 12,000×G for 10 min at 4° C. The supernatant was discarded. The process was repeated once beginning with the addition of EtOH (1.0 mL). The DNA pellet was dissolved in 700 μL H2O or TE buffer. Aliquots of 80 μL were put in 1.5 mL Eppendorf tubes. Any samples not used immediately were stored at −80° C.
Solutions of MX and Cy7MX were prepared in H2O varying [MX] from 0-1.9 M and maintaining at 25 μM. […] The ratios of MX:Cy7MX used in this study were: 0, 0.01, 0.1, 0.5, 1, 5, 10, 50, 100, 250, 500, 1000, 2500, 5000, 10000, 25000, 50000, and 75000. […] The following samples were prepared in triplicate: 20 μL of MX/Cy7MX solution was added to 80 μL aliquots of heat/acid treated DNA (t=45 min). Samples were incubated for 1 h at 37° C. in the dark. Ice-cold EtOH (1.0 mL) was added and the DNA was purified by EtOH precipitation three times as described in the heat/acid treatment of genomic DNA section. DNA was dissolved in 150 μL H2O. Aliquots (125 μL) of the samples were added to a black, clear-bottom 96 well plate (Corning) and analyzed with 750 nm excitation and 800 nm emission. Fluorescence was adjusted to DNA concentration.
As before (section 2.3.2) except solutions of ARP and Cy7MX were prepared in H2O varying [ARP] from 0-75 mM and maintaining at 1 μM. The ratios of ARP: Cy7MX used in this study were: 0, 0.1, 1, 10, 100, 500, 1000, 5000, 10000, 25000, 50000, and 75000.

[2] = test system: AP sites in calf thymus DNA; assay: MX and Cy7MX genomic DNA blocking assay; format: binding; conditions: DNA pretreated with large excess of MX (1000×)
Method: FIG. 10 illustrates fluorescence response and MX blocking of Cy7MX. Calf thymus DNA treated with heat and acid for increments of 15 min to give a linear relative number of AP sites. AP DNA was then pretreated with MX (50 mM, +MX) or NaCl (50 mM, −MX) followed by incubation with Cy7MX (0.05 mM). Fluorescence measures show a linear response to Cy7MX when not blocked by MX.
Calf thymus DNA was purchased from Sigma and was reconstituted overnight at 4° C. in either H2O or 500 mM MX (to eliminate basal AP sites) with gentle shaking (1.5 mL water or solution per 5 mg DNA). For samples reconstituted in MX solution, an ethanol precipitation was performed twice before heat and acid treatment (vide infra) then reconstituted in water. The DNA-water solution was aliquoted to 1.5 mL Eppendorf tubes (360 μL) and 10× Citrate buffer (1M NaCl, 100 μM monosodium phosphate, 100 μM monosodium citrate, pH 5.0) was added to a final concentration of 1×. For t=0 min samples, ice-cold 100% EtOH (1.0 mL) was added immediately and the Eppendorf tubes stored at −20° C. […]
To 80 μL aliquots of DNA was added either 10 μL of MX (500 mM, pH 7) or vehicle control (500 mM NaCl). […] Aliquots (125 μL) of the samples were added to a black, clear-bottom 96 well plate (Corning) and analyzed with 700 nm excitation and 790 nm emission. Fluorescence was adjusted to DNA concentration.

AP DNA = assay: SSB activity assay, dose-response of AP site binding probes; format: biochemical; conditions: 5 pmol AP DNA, FIG. 1
Method: FIG. 1 illustrates SSB activity assay is used to compare the dose-response of AP site binding probes in 5 pmol of AP DNA. Mean and standard deviation of triplicate samples are shown for each concentration.
The single strand break (SSB) assay was proposed as a quick, facile tool to screen AP site binding probes. Therefore, the assay was performed on novel AP site binding probes described above and the commercially available AP site binding probe, F422. […] The reduced response of F422 and DansylMX may be due in part to the compounds being fairly electron rich near the aminooxy binding moiety. This could lead to a Coulombic repulsion with the DNA phosphate backbone.
SSB activity assays were performed on a 40-mer duplex DNA synthesized by IDT with the sequence:
SSB Activity Assay Control Reactions

[3] = Absorption and emission spectra of AP site binding probes in ethanol; format: physicochemical
Method: NMR spectra were recorded on a Varian Mercury 300 MHz, a Varian Inova 400, and a Varian Inova 600 MHz spectrometer at room temperature, except where otherwise noted. Chemical shifts for 1H NMR were reported as 6, parts per million, and referenced to CHCl3 at 7.26 ppm or TMS at 0 ppm. Chemical shifts for ^13C NMR were reported as 6 and referenced to the center line of the CDCl3 triplet at 77.0 ppm or CH2Cl2 pentet at 54.0 ppm. Low resolution mass spectra were recorded on a ThermoScientific LCQ Advantage or a Finnigan LCQ Deca mass spectrometer. Fluorescence data were collected on a Varian Cary Eclipse fluorescence spectrophotometer in a quartz cuvette with a 1 cm pathlength or on a Tecan Infinite M200 scanner. Absorbance data were collected on a Varian Cary 50 Bio UV-Visible Spectrophotometer in a quartz cuvette with a 1 cm path length.
To characterize the fluorescent properties, the absorption and emission spectra were collected for all final compounds.

Aqueous solubility = format: physicochemical
DLD1 cells = assay: AP site evaluation in FUDR treated DLD1 cells with Cy7MX; format: cell-based; conditions: 72 h continuous FUDR exposure, UDG KD cells, DNA treated in vitro with UDG
Method: DLD1 cells (ATCC #CCL-221) were obtained from the laboratory of Sanford Markowitz at Case Western Reserve University. UDG directed shRNA clones and scrambled targeted control shRNA clones were purchased from Sigma-Aldrich. According to manufacturer's instructions from Lipofectamine 2000 (Invitrogen), HEK293 cells were transfected to produce lentiviral particles that were used to infect DLD1 cells. Forty-eight hours after transfection, DLD1 cells were diluted for passage and selected with puromycin. The UDG knockdown levels were verified by RT-PCR and Western blot analysis.
To allow for cell proliferation, the following approximate numbers of cells were plated for each time point given in parenthesis: 4 million (24 h), 1 million (48 h), and 0.3 million (72 h). Two mL of medium were removed from each plate and replaced with 2 mL of FUDR solution at a final concentration of 0, 10, 200, or 1000 nM in 10 mL. […]
Pure DNA pellets were dissolved in 200 μL 1×UDG buffer. […] DNA concentrations were measured and adjusted to a maximum of 300 μg/mL. Aliquots (125 μL) of the samples were added to a black, clear-bottom 96 well plate (Corning) and analyzed with 760 nm excitation and emission scan of 790-847 nm with a 3 nm step size. Integrated fluorescence intensities were adjusted to DNA concentration and normalized to the FUDR untreated KD+UDG sample.

[4] = in EtOH; cited from earlier work
[5] = in EtOH; cited from earlier work; remark: listed apart in the source

SMILES	dose-response and overall efficacy in SSB assay (AP DNA)	Stokes shift [3] [nm]	λabs max [3] [nm]	λem max [3] [nm]	further results
CON [MX, methoxyamine]	–	–	–	–	ED50 of Cy7MX, excess of competitor ([1]; 1 h at 37° C., constant Cy7MX): 3000 × excess; ED50, molar ratio of probe to Cy7MX ([1]; calf thymus DNA heat/acid 45 min, FIG. 13): 3000 fold excess; Cy7MX fluorescent intensity after pretreatment (blocking) [2]: significantly reduced
CCCN1/C(=C/C=C(/C=C/C2=[N+](CCC)c3ccccc3C2(C)C)c2ccc(C(=O)NCCCON)cn2)C(C)(C)c2ccccc21 [Cy5MX, 2-((1E,3Z)-3-(5-((3-(aminooxy)propyl)carbamoyl)pyridin-2-yl)-5-((E)-3,3-dimethyl-1-propylindolin-2-ylidene)penta-1,3-dien-1-yl)-3,3-dimethyl-1-propyl-3H-indol-1-ium 2,2,2-trifluoroacetate]	acceptable dose-response and overall efficacy	20	640	660	–
NNC(=S)Nc1ccc(-c2c3ccc(=O)cc-3oc3cc(O)ccc23)c(C(=O)O)c1 [Probe F422, reference compound]	unacceptable dose-response	–	–	–	overall reduction in SSB activity (AP DNA): ~90%
NOCCCOc1ccc2cc(-c3ccc(N)cc3)c(=O)oc2c1 [ACMX, 7-(3-(aminooxy)propoxy)-3-(4-aminophenyl)-2H-chromen-2-one]	–	80	370	450	aqueous solubility (Aqueous solubility): poor aqueous solubility
NOCCCOc1ccc2cc(-c3ccc([N+](=O)[O-])cc3)c(=O)oc2c1 [NpCMX, 7-(3-(aminooxy)propoxy)-3-(4-nitrophenyl)-2H-chromen-2-one]	superior to the other probes assayed in dose-response and overall efficacy	185	365	550	–
O=c1[nH]c(=O)n([C@H]2C[C@H](O)[C@@H](CO)O2)cc1F [FUDR, 5-fluoro-20-deoxyuridine]	–	–	–	–	increase in Cy7MX fluorescence intensity (AP sites) (DLD1 cells): ~9 fold
Cc1cc(=O)oc2cc(OCCCON)ccc12 [MCMX, 7-(3-(aminooxy)propoxy)-4-methyl-2H-chromen-2-one]	superior to the other probes assayed in dose-response and overall efficacy	50	325	375	–
CN(C)c1cccc2c(S(=O)(=O)NOCCCON)cccc12 [DansylMX, N-(3-(aminooxy)propoxy)-5-(dimethylamino)naphthalene-1-sulfonamide]	unacceptable dose-response	200	340	540	overall reduction in SSB activity (AP DNA): ca. 60%
CC1(C)C(/C=C/C=C/C=C/C=C2\N(CCCCS(=O)(=O)O)c3ccc4ccccc4c3C2(C)C)=[N+](CCCCS(=O)(=O)[O-])c2ccc3ccccc3c21 [ICG, indocyanine green]	–	–	–	–	fluorescence quantum yield of the standard [4]: 0.132; fluorescence quantum yield Φ of the standard [5]: 0.132

Source: patent US10718028B2, “Fluorescent probes for abasic site detection” (CASE WESTERN RESERVE UIVERSITY, priority 2015, dated 2020)
